Laboratory results published in patent US6063964A, “5-hydroxymethyl-2-aminotetralins as cardiovascular agents” (Zambon Group S.p.A., priority 1997, dated 2000).

Key:
[1] = target: T1, dopaminergic receptors D2 (Oryctolagus cuniculus, UniProt G1T1Q0); experiment: D2 activity in the rabbit ear artery (REA), electrically stimulated isolated artery rings; settings: rabbit central ear artery rings, electrically stimulated (10 Hz); cumulative administration; agonistic activity at peak of effect; read-out: D2 activity (REA) expressed as pD2, i.e. -logEC50 (converted)
T1 construct: The central ear artery was cut into 3 mm-rings; from tissue; host or cells: central ear artery rings of male New Zealand rabbits
T1 sequence (G1T1Q0 1-443): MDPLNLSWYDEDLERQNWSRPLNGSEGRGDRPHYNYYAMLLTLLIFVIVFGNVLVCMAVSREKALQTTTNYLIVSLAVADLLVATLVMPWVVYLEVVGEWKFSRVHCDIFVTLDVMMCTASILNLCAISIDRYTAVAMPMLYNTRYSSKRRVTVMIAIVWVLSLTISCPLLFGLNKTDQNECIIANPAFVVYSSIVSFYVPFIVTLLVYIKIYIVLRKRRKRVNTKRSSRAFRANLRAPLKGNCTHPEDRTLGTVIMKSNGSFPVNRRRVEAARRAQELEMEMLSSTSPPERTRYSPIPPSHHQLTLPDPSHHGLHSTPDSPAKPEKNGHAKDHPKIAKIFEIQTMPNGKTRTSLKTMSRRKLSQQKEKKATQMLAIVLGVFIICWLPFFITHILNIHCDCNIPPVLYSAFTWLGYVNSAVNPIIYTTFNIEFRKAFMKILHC
Protocol: Evaluation of the D2 activity in the rabbit ear artery (REA)
Artery rings were prepared following the method described by Steinsland et al., Science, 1978, 443, 199, modified as follows.
Male New Zealand rabbits (weighing 2.5-3 Kg) were sacrificed by a pentobarbital intravenous injection and bled. The central ear artery was cut into 3 mm-rings.
The samples were placed into a 25 ml-bath containing a Krebs solution (mM/l): sodium chloride 118, potassium chloride 4.7, calcium chloride 2.5, magnesium sulphate 1.2, sodium hydrocarbonate 25, potassium biphosphate 1.2, glucose 11.1, balanced with oxygen 95%/carbon dioxide 5% and maintained at 35±1° C. The Krebs solution was added with EDTA (10 μM) to prevent the cathecolamine oxidation, with desipramine (0,1 μM) and corticosterone (30 μM) to stop the neuronal and extraneuronal cathecolamine re-uptake.
The samples were electrically stimulated (10 Hz, 1 msec., 40-80 mA, 500 msec long) at intervals of 5 minutes.
(§1) The tested compounds were cumulatively administered.
(§2) Dopamine was used as reference compound.

[2] = target: dopaminergic receptors D1 (Oryctolagus cuniculus, UniProt G1SML2); experiment: D1 activity on the rabbit splenic artery (RSA), isolated artery rings contracted with U46619; settings: cumulative administration, agonistic activity at peak of effect
dopaminergic receptors D1, sequence (G1SML2 1-448): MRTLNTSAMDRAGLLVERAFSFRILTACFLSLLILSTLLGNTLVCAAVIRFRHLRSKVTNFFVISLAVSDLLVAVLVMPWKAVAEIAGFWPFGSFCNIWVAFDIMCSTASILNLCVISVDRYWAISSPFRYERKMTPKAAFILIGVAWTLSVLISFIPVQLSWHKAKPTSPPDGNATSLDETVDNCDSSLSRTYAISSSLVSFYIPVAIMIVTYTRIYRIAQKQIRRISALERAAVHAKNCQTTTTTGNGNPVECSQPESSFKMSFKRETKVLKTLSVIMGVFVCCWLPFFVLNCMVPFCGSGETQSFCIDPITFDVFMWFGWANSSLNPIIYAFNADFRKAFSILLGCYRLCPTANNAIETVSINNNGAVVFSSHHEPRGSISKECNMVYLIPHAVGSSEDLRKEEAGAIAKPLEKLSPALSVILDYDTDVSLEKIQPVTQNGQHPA
Protocol: Tests of dopaminergic activity on isolated tissues Evaluation of the D1 activity on the rabbit splenic artery (RSA)
Artery rings were prepared according to Semeraro et al., Naunyn. Schnied. Arch. […] These were contracted with U46619 (9,11-dideoxy-11α, 9α -epoxy-methanprostaglandine F2 α) at a submaximal concentration of […].
as §1, §2

`NCCc1ccc(O)c(O)c1` [Dopamine, reference compound] gave an EC50 [1] of 0.0158 µM.
In the case of `CCCN(CCC)[C@H]1CCc2c(ccc(O)c2CO)C1.O=C(O)/C=C\C(=O)O` [Example 6, (S)-N,N-dipropyl-6-hydroxy-5-hydroxymethyl-1,2,3,4-tetrahydro-2-naphthylamine maleate], the “D1 activity (RSA) expressed as pD2, i.e. -logEC50” value [2] was 6.0 and the EC50 [1] was 0.01 µM.
